{"source": "patent US9968627B2", "about": "(Celgene Corporation, priority 2013, dated 2018)", "key": {"[1]": {"test": "Solubility of 5-azacytidine in various solvents at ambient temperature (visual, solvent aliquot addition)", "assay_type": "physicochemical", "conditions": "thermodynamic from solid", "method": "Solubility was estimated by treating a weighed sample of 5-azacytidine with measured aliquots of the test solvent at ambient temperature, with shaking and/or sonication between aliquots. Dissolution was determined by visual inspection. Solubility numbers were calculated by dividing the […]. The actual solubilities may be greater than the numbers calculated because of the use of solvent aliquots that were too large or because of slow dissolution rates. […] The solubility number is expressed as “greater than” if dissolution occurred on addition of the first solvent aliquot."}, "[2]": {"tested_on": "subjects with higher-risk MDS", "conditions": "Phase III study, administered subcutaneously; cited from earlier work"}}}
{"smiles": "Nc1ncn([C@@H]2O[C@H](CO)[C@@H](O)[C@H]2O)c(=O)n1", "note": "[5-azacytidine, 4-amino-1-β-D-ribofuranosyl-1,3,5-triazin-2(1H)-one]", "values": [{"measurement": "solubility", "setting": "[1]; 1:1 methanol/water, aqueous with cosolvent or surfactant or cyclodextrin, 1:1 methanol/water", "result": 2800, "unit": "µg/mL"}, {"measurement": "solubility", "setting": "[1]; 1:2 methanol/water, aqueous with cosolvent or surfactant or cyclodextrin, 1:2 methanol/water", "result": 3100, "unit": "µg/mL"}, {"measurement": "solubility", "setting": "[1]; 1:2 methanol/water, aqueous with cosolvent or surfactant or cyclodextrin, 1:2 methanol/water (second line printed with this solvent)", "result": 4600, "unit": "µg/mL"}, {"measurement": "solubility", "setting": "[1]; DMF, organic solvent or mixture", "result": 1700, "unit": "µg/mL"}, {"measurement": "solubility", "setting": "[1]; DMSO, organic solvent or mixture", "result": 2200, "unit": "µg/mL"}, {"measurement": "Survival and time to AML transformation or death", "setting": "[2]", "result": "significantly prolonged survival and time to AML transformation or death"}]}
